The subject of data set [1] is U-87 human glioblastoma cells. Description: Cell survival of U-87 human glioblastoma cells after treatment. Format: cell-based. Particulars: 24 h exposure, concentration-dependent survival (FIG. 24). On the procedure:
U-87 MG cell line is an epithelial cell line derived from a grade IV glioblastoma resected from the brain of a patient. U-87 cells were plated in four flasks for each isomer and allowed to attach for 24 h. The compounds 6b fast and 6b slow were added to U-87 cells at […] (37 kBq/mL). Cells were incubated with the radioactive compounds for 24 h and the radioactive medium was removed. Cells were washed twice with fresh, nonradioactive medium and trypsinized. After appropriate dilutions in full growth medium, cells were re-plated in fresh medium (n=4 per compound). After 96 hours in culture, cells were harvested and their numbers counted using a Cellometer® disposable cell counting chamber (Nexcelom Bioscience, Lawrence, Mass.). Four flasks used as controls were sham-treated with a volume of PBS used to dissolve radioactive compounds. The control flasks were processed as described for the radioactive compound-treated cells. […] The surviving fraction is calculated as the ratio of cell number recovered from flasks treated with radioactive compounds to the cell number recovered from the control flasks. Averages and standard deviations are shown. The cell survival was also measured in a 96-well and 6-well formats.
U-87 cells were plated in 6-well plates from suspension. The compounds 6b fast and 6b slow were added with media on day 0. […] The OD was read at 560 nm. […]

Data set [2] concerns U-87 human glioblastoma cells. Briefly: DNA uptake and subcellular distribution of radioactivity in U-87 cells. Format: cell-based. As for the experimental part: U-87 cells were plated in T75 flasks and allowed to attach for 24 h. Compounds 6b-fast and 6b slow were added to cells at 1 μCi/mL (37 kBq/mL) and 5 μCi/mL (185 kBq/mL). Cells were incubated with radioactive compounds from 24 h to 120 h. The radioactive medium was removed. Cells were washed twice with fresh, nonradioactive medium. Cells were trypsinized and their numbers and radioactive content determined. A similar study was also conducted in 96- and 24-well formats, which allowed more rapid analyses of several concentrations of 6b. Harvested cells were processed using NE-PER nuclear and cytoplasmic extraction reagents (Thermo Fisher Scientific, Rockford, Ill.). […] U-87 cells plated in T75 flasks and allowed to grow for 24 h. Cells were treated with […] 6b fast and 6b slow for 40 h at which time the radioactive medium was removed and replaced with fresh media. Cells were grown in fresh medium for additional 24 h and 72 h. Cells were trypsinized and DNA was extracted using the Qiagen method (Qiagen Genomic-tip 20/G; Qiagen, Valencia, Calif.).

In data set [3] the test system is U-87 human glioblastoma cells. Briefly: Concentration-dependent uptake by U-87 cells. In kind it is cell-based. Particulars: 40 h exposure, 96-well plates. As for the experimental part: U-87 cells were plated in 96-well plates and allowed to attach for ˜48 hours. The used medium was replaced with 6b-containing medium and the cells were grown in the presence of radioactivity for 40 h. The radioactive media was removed after 40 h of exposure. Aliquots (0.05 mL) of the radioactive medium were counted in a gamma counter. Cell monolayers were washed with PBS, PBS-methanol (2 min), and fixed in methanol (10 min). Fixed cells were allowed to dry and were stained with 0.25% crystal violet (10 min). To each well 0.1 mL ethanol was added (2 h) followed by 0.1 mL 3.5 mM SDS in water. OD at 560 nm was read. Solubilized cells were transferred into gamma counter tubes to determine their radioactive content. The plate was divided into individual wells and these were also added to the gamma counter tubes. FIG. 27 illustrates the concentration-dependent uptake.

For data set [4], the system named is subcutaneous LS174T tumors (human colorectal adenocarcinoma). Description: Biodistribution, clearance and planar imaging in athymic mice bearing subcutaneous LS174T xenografts. In kind it is in vivo, athymic NCr-nu/nu mice. Particulars: IV administration. On the procedure: The in vivo properties and pharmacology of several compounds of the present invention were initially tested in athymic mice bearing subcutaneous LS174T tumors (human colorectal adenocarcinoma), which have several desirable properties such as rapid growth when implanted subcutaneously (SQ), good vascularization and the availability of considerable historical data for the parent compound IUdR. The clearance rates from blood, tumor, and associated organs were analyzed to determine the structure-pharmacokinetics relationship. The first compounds studied were 6b-fast and 6b-slow. Four-to-six-weeks old female athymic NCr-nu/nu mice (NCI-Frederic, Md., USA) were allowed to acclimate in Applicants' facility after delivery for no less than 5 days. All protocols involving animals were approved by the University of Nebraska Institutional Animal Care and Use Committee. Mice were housed in microisolator cages with free access to sterilized standard rodent diet and water. LS174T cells in 0.1 mL of serum-free medium were implanted SQ at 5×10^6 cells/mouse. One week later identification transponders were implanted, also SQ. Body weights and tumor sizes were monitored twice weekly, and approximately 10 days after the cell implant, mice were randomized for biodistribution studies.
Each of the two isomers, 6b-fast and 6b-slow, was tested independently in separate groups of mice. The comparison to the parent compound, IUdR, was made by co-injecting ^131IUdR with a particular ^125I-labeled diastereomer. Compounds were administered intravenously (IV) via a tail vein.
Biodistribution was conducted at 1 h, 4 h, 24 and 48 h after the administration of radiolabeled compounds (n=6 per time point). The injection doses contained approximately 1 μCi (37 kBq) ^131IUdR and 5 μCi (185 kBq) ^125I-labeled 6b-fast or 6b-slow dissolved in 0.2 mL phosphate buffered saline containing 0.1% bovine serum albumin, pH 7.2 (PBS). All syringes were weighted after loading with the compound solution and immediately after the injection to determine the weight of the injected dose. Triplicate standards of the injected dose were prepared in PBS and counted in a gamma counter just before the beginning of the experiment. The radioactive content of these standards was also determined alongside all tissues after the necropsy to correct the tissue uptake for the decay of the radioisotope. Blood, liver, spleen, heart, lungs, kidneys, brain, tumor and tail were collected during necropsy. Tissues were rinsed in ice-cold saline, patted dry and weighed. The tail was collected to validate the quality of the IV injections.
FIG. 7 presents whole body images for a typical time course distribution (24 h, 48 h, and 72 h) of 6b administered as a diastereomeric mixture in LS174T-bearing athymic mice. The images were acquired 1, 2, and 3 days after the administration of the compound. […] It is also apparent that based on pharmacokinetics, the use of these compounds can be tailored to a specific malignancy and its anatomical location.

The next data set relates to advanced OVCAR-3 tumors. Description: Therapy with fractionated doses in advanced OVCAR-3 tumors. Format: in vivo, athymic NCr-nu/nu mice. The following applies: IP fractionated doses. As for the experimental part:
Female athymic NCr-nu/nu mice were received from NCI-Frederic (MD, USA). Identification transponders were implanted SQ in mice acclimated for one week. When mice reached the age of 8-weeks, all mice received IP implant of 5.6×10^8 OVCAR-3 cells/mouse in 0.5 mL media without serum. This cancer cell load is double the size of implant described in Example 6 and allows for a rapid development of the advanced stages of the tumor. One weeks later mice were separated into […] via a lottery as follows: mice in the control group were left untreated; mice the vehicle group received 0.3 mL vehicle (PBS containing 0.5% albumin and 5% DMSO); the remaining mice in groups ×1, ×2, and ×3 received an IP injection of 8b-slow in 0.3 mL vehicle; two weeks later mice in groups ×2 and ×3 received an IP injection of 8b-slow in 0.3 mL vehicle; and four weeks after the first dose mice in group ×3 received an IP injection of 8b-slow in 0.3 mL vehicle. Using the same schedule, mice in the vehicle group were given IP injections of 0.3 mL vehicle. The average total administered doses were as follows: group ×1: 0.5 mCi […]; group ×2: 1 mCi (37 MBq), and group ×3: 1.5 mCi (55.5 MBq). All mice were killed six weeks after the administration of the first dose. […] The data analyses confirmed that the observed differences are statistically significant. […]

Data set [5] relates to early stage OVCAR-3 tumors. Description: Dose-response therapy in early stage OVCAR-3 tumors. Format: in vivo, athymic NCr-nu/nu mice. On the procedure: Female athymic NCr-nu/nu mice were received from NCI-Frederick (MD, USA) and were allowed to acclimate in Applicants' facilities until the age of 8 weeks. After this period of acclimation, 2.5×10^8 OVCAR-3 cells were implanted into 36 mice. Four days later, each mouse received SQ transponders (micro-identification chips) and mice were divided into three groups at random: control mice receiving sham IP injections of 0.6 mL vehicle (n=12); mice in the high dose group were treated with one IP dose of 0.7 mCi (26 MBq) 8b slow in 0.6 mL vehicle (n=12); and mice the low dose group were treated with one IP dose of 0.29 mCi (10.7 MBq) 8b slow in 0.6 mL vehicle (n=12).
Five weeks after treatment, all mice were sacrificed and full necropsy was performed. A single dose of 8b slow given at the early stages of the disease reduces the tumor burden by […]. The response of solid tumors seems better than the cells in ascites, […] in the weight of the solid tumor deposits (FIG. 17). The uptake and retention of radioactivity was measured in several tissues and in tumor. The radioactivity levels in blood are ˜30 times lower than in the tumor cells in ascites and ˜10 times lower than in the solid tumors.

Setting [6] is: five weeks after single IP dose.
[7] abbreviates: single IP dose, five weeks after treatment.

A value given as a limit tells only on which side of the number the result lay.

Consider `O=c1[nH]c(=O)n([C@H]2C[C@H](O)[C@@H](COP3(=O)OCc4ccccc4O3)O2)cc1[125I]` (stereo partly drawn) [6b slow, 5-[^125I]-Iodo-5′-O-cycloSaligenyl-2′-deoxyuridine Monophosphate], for which the “cytotoxicity to U-87 cells, slow versus fast isomer” value in data set [1] was “more cytotoxic to U-87 cells compared to the 6b fast isomer”. For the same compound, the “cellular and nuclear uptake, slow versus fast isomer” value in data set [2] was “greater overall cellular and nuclear uptake when compared to 6b fast”. Besides, the “uptake by U-87 cells compared to 6b fast” value in data set [3] is reported as “almost a two-fold greater uptake”.
Turning to `CC(C)(C)c1cc(C(C)(C)C)c2c(c1F)COP(=O)(OC[C@H]1O[C@@H](n3cc([125I])c(=O)[nH]c3=O)C[C@@H]1O)O2` (stereo partly drawn) [8b slow, 5-[^125I]-Iodo-5′-O-[cyclo-3,5-di-(tert-butyl)-6-fluoroSaligenyl]-2′-deoxyuridine Monophosphate], in data set [4], the “clearance from blood and normal tissues” value is “rapid clearance from blood and normal tissues”. Moreover, the “relationship between tumor size and total administered doses” value in the data set with advanced OVCAR-3 tumors (total 0.5, 1, 1.5 mCi, six weeks after first dose) is “unambiguous dose-response relationship”. Moreover, the “hematological adverse effects (hemoglobin and hematocrit)” value in the data set with advanced OVCAR-3 tumors (total 0.5-1.5 mCi) was “do not produce any significant hematological adverse effects”. Also, in data set [5] (setting [6]), the liver uptake was < 0.003 % ID/g; the “radioactivity level in blood, times lower than in the solid tumors” value was ~10 times; the “radioactivity level in blood, times lower than in the tumor cells in ascites” value is listed as ~30 times. The “adverse effects by hemoglobin and hematocrit levels” value in data set [5] (single IP dose 0.29 or 0.7 mCi) is on record as “not causing noticeable adverse effects”. In addition, in data set [5] (setting [7]), the “reduction in the weight of the solid tumor deposits” value is > 300% and the “reduction of tumor burden” value is > 230%.

The values above are taken from patent US20120269725A1, “TARGETED RADIOLABELED COMPOUNDS AND THEIR USE FOR THE TREATMENT AND DIAGNOSIS OF CANCER” (priority 2009, published 2012).
